Results on four compounds are retold here after patent publication US7612064B2, “Sulfopyrroles” (Takeda Pharmaceutical Company Limited, priority 2003, dated 2009).

The test system of test [1] is HeLa. The test can be described thus: MTS proliferation assay. Format: cell-based, human. As to conditions: 72 h. The essentials:
(§1)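 Proliferation is assessed by MTS conversion, measured as 492 nm absorption. Cells are treated for three days (72 h) with four compound concentrations between 0.3 and 10 μM.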
For orientation: Formazan colour is commonly taken as a measure of viable cells.

For test [2], the system named is Jurkat. The test can be described thus: MTS proliferation assay. Format: cell-based, human. As to conditions: 72 h. The essentials: as §1
The test system of test [3] is MRC5. Kind of test: MTS proliferation assay. It is filed as cell-based. As to conditions: MRC5, 72 h. Summed up:
as §1

Test [4] in a line: Hoechst 33342 nuclear staining.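 For all read-outs here: apoptotic nuclei scored 0 none 1 weak under 50% of cells 2 strong over 50% of cells.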 It is filed as cell-based. As to conditions: 24 h or 48 h incubation; for Hoechst 33342 nuclear staining score, HeLa: HeLa cells; for Hoechst 33342 nuclear staining score, Jurkat: Jurkat cells. Summed up: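 After a further 30 min incubation, plates were inspected on a standard inverted fluorescence microscope. The fraction of apoptotic nuclei and other apoptosis-specific morphology were scored as 0 for no activity, 1 for weak activity in less than 50% of the cells, and 2 for strong activity in more than 50% of the cells.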

The mark [5] stands for this setting: conc 0.1 (final concentrations in μM).
Setting [6] is: conc 0.3 (final concentrations in μM).
The mark [7] stands for this setting: conc 1 (final concentrations in μM).
[8] abbreviates: conc 3 (final concentrations in μM).
[9] abbreviates: conc 10 (final concentrations in μM).

As a reminder, the IC50 is the concentration at which inhibition is half-maximal. Read a high IC50 as weaker potency. Consider `Cc1ccc(S(=O)(=O)n2cc(CNCCN3CCCC3)cc2-c2ccc3c(c2)OCO3)cc1` [Example 17], for which the 50% inhibitory concentration (IC50) in test [1], in test [2] and in test [3] was greater than 1000 nM throughout. For the same compound, the “Hoechst 33342 nuclear staining score, HeLa” value in test [4] (setting [5]), in test [4] (setting [6]), in test [4] (setting [7]) and in test [4] (setting [8]) was 0 in each case. Moreover, the “Hoechst 33342 nuclear staining score, Jurkat” value in test [4] (setting [5]), in test [4] (setting [6]), in test [4] (setting [7]) and in test [4] (setting [8]) was 0 in each case.

On to `Cc1ccc(S(=O)(=O)n2cc(CNc3ccc(-n4ccnc4)cc3)cc2-c2ccc3c(c2)OCO3)cc1` [Example 40], for which the IC50 in test [1], in test [2] and in test [3] was greater than 1000 nM throughout. For the same compound, the “Hoechst 33342 nuclear staining score, HeLa” value in test [4] (setting [6]), in test [4] (setting [7]), in test [4] (setting [8]) and in test [4] (setting [9]) was 0 in each case. Further, the “Hoechst 33342 nuclear staining score, Jurkat” value in test [4] (setting [6]), in test [4] (setting [7]), in test [4] (setting [8]) and in test [4] (setting [9]) was 0 throughout.

For `Cc1ccc(S(=O)(=O)n2cc(CN3CCN(c4ccccn4)CC3)cc2-c2ccc3c(c2)OCO3)cc1` [Example 32], the IC50 in test [1], in test [2] and in test [3] was greater than 1000 nM throughout. Besides, the “Hoechst 33342 nuclear staining score, HeLa” value in test [4] (setting [5]), in test [4] (setting [6]), in test [4] (setting [7]) and in test [4] (setting [8]) was 0 each time. Besides, the “Hoechst 33342 nuclear staining score, Jurkat” value in test [4] (setting [5]), in test [4] (setting [6]), in test [4] (setting [7]) and in test [4] (setting [8]) was 0 each time.

Turning to `CCN1CCN(CCCNCc2cc(-c3ccc4c(c3)OCO4)n(S(=O)(=O)c3ccc(C)cc3)c2)CC1` [Example 29], the IC50 in test [1], in test [2] and in test [3] was greater than 1000 nM each time. Also, the “Hoechst 33342 nuclear staining score, HeLa” value in test [4] (setting [5]), in test [4] (setting [6]), in test [4] (setting [7]) and in test [4] (setting [8]) was 0 throughout. In addition, the “Hoechst 33342 nuclear staining score, Jurkat” value in test [4] (setting [5]), in test [4] (setting [6]), in test [4] (setting [7]) and in test [4] (setting [8]) was 0 in each case.
